{"source": "patent US5223517A", "about": "“Heterocyclically substituted cycloalkano[b]-indolesulphonamides” (Bayer Aktiengesellschaft, priority 1990, dated 1993)", "note": "Structures can show the parent of a compound that is named as a salt.", "data": [{"system": "platelet aggregation (platelet-rich citrate plasma, collagen)", "test": "platelet aggregation-inhibiting action (TAI), collagen-induced, platelet-rich plasma, turbidometric method", "assay_type": "cell-based", "conditions": "Homo sapiens, 0.1 h, range of the minimum effective concentration, PRP, 37° C., result after 6 minutes, read-out: TAI threshold concentration", "description": "Blood from healthy subjects of both sexes was used for the determination of the platelet aggregation-inhibiting action. As an anticoagulant, one part of 3.8% strength aqueous sodium citrate solution was admixed to 9 parts of blood. Platelet-rich citrate plasma (PRP)^1 is obtained from this blood by means of centrifugation (Jurgens/Beller, Klinische Methoden der Blutgerinnungsanalyse (Clinical Methods of Blood Coagulation Analysis); Thieme Verlag, Stuttgart, 1959).\nFor these investigations, 0.8 ml of PRP and 0.1 ml of the active compound solution were preincubated in a water bath at 37° C. The platelet aggregation was then determined by the turbidometric method (Born, G. V. R., J. Physiol. (London), 162, 67, 1962) in an aggregometer at 37° C. (Therapeutische Berichte 47, 80-86, 1975). To this end, 0.1 ml of collagen, an aggregation-inducing agent, was added to the preincubated sample. The change in the optical density in the sample of PRP^1 was recorded during a period of 6 minutes and the results was determined after 6 minutes. To do this, the percentage inhibition is calculated compared to the control.\nThe range of the minimum effective concentration is given as the threshold concentration.", "units": {"minimal effective concentration": "µg/mL"}, "values": [{"smiles": "O=C(O)CCn1c2c(c3cc(CCc4cccnc4)ccc31)CC(NS(=O)(=O)c1ccc(F)cc1)CC2", "note": "(stereo not shown) [Example 17]", "minimal effective concentration": "0.03 to 0.1"}, {"smiles": "O=C(O)CCn1c2c(c3c(Cc4cccnc4)cccc31)CC(NS(=O)(=O)c1ccc(F)cc1)CC2", "note": "(stereo not shown) [Example 18]", "minimal effective concentration": "0.3 to 1"}, {"smiles": "O=C(O)CCn1c2c(c3cc(C(=O)CCc4cccnc4)ccc31)CC(NS(=O)(=O)c1ccc(F)cc1)CC2", "note": "(stereo not shown) [Example 20]", "minimal effective concentration": "0.03 to 0.1"}, {"smiles": "O=C(O)CCn1c2c(c3cc(OCc4ccccn4)ccc31)CC(N(Cc1ccccn1)S(=O)(=O)c1ccc(F)cc1)CC2", "note": "(stereo not shown) [Example 25]", "minimal effective concentration": "0.03 to 0.1"}]}, {"target": "T1, thromboxane synthase (Homo sapiens, UniProt P24557)", "T1 construct": "1 ml of the platelet suspension and 0.01 ml of the test preparation in 10% DMSO are incubated at 37° C. for 2 min; endogenous in cells; host or cells: washed human platelets from blood of healthy donors", "T1 sequence (P24557 1-533)": "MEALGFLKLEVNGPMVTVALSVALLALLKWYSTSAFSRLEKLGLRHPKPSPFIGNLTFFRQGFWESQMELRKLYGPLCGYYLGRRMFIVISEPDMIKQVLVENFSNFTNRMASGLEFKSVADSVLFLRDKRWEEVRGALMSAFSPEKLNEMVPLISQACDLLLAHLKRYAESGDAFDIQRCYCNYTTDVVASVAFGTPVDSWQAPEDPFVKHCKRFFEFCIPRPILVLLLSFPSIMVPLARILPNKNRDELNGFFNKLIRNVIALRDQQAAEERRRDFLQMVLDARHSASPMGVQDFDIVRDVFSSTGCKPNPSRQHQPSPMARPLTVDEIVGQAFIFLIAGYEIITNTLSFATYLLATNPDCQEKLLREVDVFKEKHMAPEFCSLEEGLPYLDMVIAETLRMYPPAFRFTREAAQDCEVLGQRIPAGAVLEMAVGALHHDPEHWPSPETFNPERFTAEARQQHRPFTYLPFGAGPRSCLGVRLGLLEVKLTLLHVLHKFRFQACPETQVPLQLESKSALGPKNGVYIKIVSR", "test": "Measurement of the thromboxane synthase in washed human platelets", "assay_type": "cell-based", "conditions": "3H-arachidonic acid, 37° C., 10 min, read-out: IC50 (50% inhibition of thromboxane formation compared to the control)", "units": {"IC50": "nM"}, "values": [{"smiles": "O=C(O)CCn1c2c(c3cc(Cc4cccnc4)ccc31)CC(NS(=O)(=O)c1ccc(F)cc1)CC2", "note": "(stereo not shown) [Example 11, 9-(2-Carboxyethyl)-3-(4-fluorophenylsulphonamido)-6-(3-pyridyl-methyl)-1,2,3,4-tetrahydro-carbazole hydrochloride]", "IC50": 200}, {"smiles": "O=C(O)CCn1c2c(c3cc(CCc4cccnc4)ccc31)CC(NS(=O)(=O)c1ccc(F)cc1)CC2", "note": "(stereo not shown) [Example 17]", "IC50": 1000}, {"smiles": "O=C(O)CCn1c2c(c3ccc(-c4cccnc4)cc31)CC(NS(=O)(=O)c1ccc(F)cc1)CC2", "note": "(stereo not shown) [Example 24]", "IC50": 100}]}]}
